# Test results: ChEMBL document CHEMBL1201862, “PubChem BioAssay data set” (2004)
# Active and inactive are the calls of the source.
# Tests used:
# CHO = CHO cell viability loss, potency – luminescence, cytotoxicity control for TLR9-MyD88 binding inhibitor project, dose response (AID 588339); format: functional, cell-based, hamster; details: Cricetulus griseus;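 also: CHO cells stably coexpressing TLR9 and MyD88 fusions from primary screen; compound exposure lasted 48 hours before viability readout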
# Beta-lactamase [1] = molecular target: Beta-lactamase (Salmonella choleraesuis (strain SC-B67), UniProt Q5J463)
# Streptokinase A = molecular target: T1, Streptokinase A (Streptococcus pyogenes serotype M1, UniProt P10520); assay: viability-normalized secreted streptokinase activity reduction – plasminogen activation absorbance, OD405, dose response (AID 1914); format: functional, Streptococcus pyogenes M1 GAS;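 also: secreted streptokinase activity via plasminogen activation per viability signal from cell pellet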
# T1 sequence (P10520 whole entry): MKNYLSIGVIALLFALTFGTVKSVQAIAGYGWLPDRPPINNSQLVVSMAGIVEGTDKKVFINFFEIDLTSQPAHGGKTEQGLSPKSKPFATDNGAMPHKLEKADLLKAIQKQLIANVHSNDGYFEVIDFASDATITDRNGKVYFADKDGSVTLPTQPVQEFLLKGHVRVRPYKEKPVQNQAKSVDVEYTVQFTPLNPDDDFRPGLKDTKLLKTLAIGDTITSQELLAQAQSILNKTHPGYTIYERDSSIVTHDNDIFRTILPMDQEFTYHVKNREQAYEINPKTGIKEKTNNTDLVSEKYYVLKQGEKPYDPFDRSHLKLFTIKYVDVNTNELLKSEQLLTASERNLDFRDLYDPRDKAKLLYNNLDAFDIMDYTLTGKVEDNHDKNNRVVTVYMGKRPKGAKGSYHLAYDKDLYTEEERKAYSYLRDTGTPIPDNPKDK
# ORF 73 = molecular target: T2, ORF 73 (Human herpesvirus 8, UniProt O40947); assay: KSHV LANA DNA-binding disruption – biochemical, fluorescence polarization, cherry-picked samples, dose response (AID 504725); parameters: species or system Human gammaherpesvirus 8;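 also: fluorescence polarization of a labeled DNA duplex reporting LANA DNA binding; potency is for inhibitors that block LANA binding to the DNA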
# T2 sequence (O40947 whole entry): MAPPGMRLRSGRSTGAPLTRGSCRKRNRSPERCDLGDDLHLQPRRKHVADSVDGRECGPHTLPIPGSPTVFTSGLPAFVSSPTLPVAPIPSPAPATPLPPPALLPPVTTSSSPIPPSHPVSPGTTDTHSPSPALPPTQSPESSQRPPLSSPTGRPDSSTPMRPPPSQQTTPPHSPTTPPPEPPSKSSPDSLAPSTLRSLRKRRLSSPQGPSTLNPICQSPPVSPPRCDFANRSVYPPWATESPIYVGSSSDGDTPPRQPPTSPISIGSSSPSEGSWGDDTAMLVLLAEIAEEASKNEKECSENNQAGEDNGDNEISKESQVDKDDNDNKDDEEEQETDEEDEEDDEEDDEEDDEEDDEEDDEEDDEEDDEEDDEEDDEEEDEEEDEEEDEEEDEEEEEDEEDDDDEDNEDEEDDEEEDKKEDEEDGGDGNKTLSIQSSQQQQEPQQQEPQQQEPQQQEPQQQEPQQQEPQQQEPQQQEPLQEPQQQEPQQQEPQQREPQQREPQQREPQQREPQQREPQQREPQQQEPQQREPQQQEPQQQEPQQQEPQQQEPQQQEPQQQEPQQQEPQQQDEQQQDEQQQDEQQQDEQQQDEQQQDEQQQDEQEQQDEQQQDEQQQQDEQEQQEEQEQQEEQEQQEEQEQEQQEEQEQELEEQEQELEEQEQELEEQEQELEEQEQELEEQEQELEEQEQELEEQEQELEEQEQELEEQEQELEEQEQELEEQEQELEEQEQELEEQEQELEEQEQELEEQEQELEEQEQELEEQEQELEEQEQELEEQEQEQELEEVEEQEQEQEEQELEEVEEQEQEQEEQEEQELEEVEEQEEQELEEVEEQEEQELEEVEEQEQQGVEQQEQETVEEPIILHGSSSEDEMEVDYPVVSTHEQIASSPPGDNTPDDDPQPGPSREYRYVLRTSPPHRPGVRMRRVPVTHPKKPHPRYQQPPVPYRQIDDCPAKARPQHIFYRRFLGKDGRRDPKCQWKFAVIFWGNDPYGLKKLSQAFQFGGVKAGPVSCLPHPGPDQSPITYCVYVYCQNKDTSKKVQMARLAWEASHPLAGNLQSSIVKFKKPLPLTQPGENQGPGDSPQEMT
# [2] = system: Streptococcus sp. 'group A'; assay: Streptococcus pyogenes SK(-)GAS viability under kanamycin – luminescence, BacTiterGlo, confirmation, counter-screen for streptokinase expression inhibitor project, dose response (AID 1900); format: functional, organism-based
# Beta-lactamase [3] = molecular target: Beta-lactamase (Pseudomonas aeruginosa, UniProt Q79MP6);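 also: biochemical dose-response test of metallo-beta-lactamase enzyme inhibition, read out by epi-absorbance; purified recombinant IMP-1 metallo-beta-lactamase with nitrocefin as substrate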
# Beta Lactamase [4] = molecular target: T3, Beta Lactamase (Pseudomonas aeruginosa, UniProt Q932Y6);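 also: confirmatory high-throughput screen measuring VIM-2 metallo-beta-lactamase inhibition by epi-absorbance in dose response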
# [5] = molecular target: UDP-galactopyranose mutase (Mycobacterium tuberculosis, UniProt P9WIQ1); assay: Inhibitors of Mycobacterium tuberculosis UDP-galactopyranose mutase (UGM) enzyme Measured in Biochemical System Using Plate Reader - 2105-02_Inhibitor_Dose_CherryPick_Activity. [Related pubchem assays (depositor defined):AID504439]
# [6] = molecular target: Voltage-dependent T-type calcium channel subunit alpha-1H (Homo sapiens, UniProt O95180); format: functional;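 also: channel activity triggered by adding a high calcium stimulation buffer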
# Streptococcus = assay: GAS UMAA2166 growth inhibition – luminescence, BacTiterGlo, counter-screen for streptokinase expression inhibitor project, dose response (AID 1915); format: functional, organism-based;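 also: potency for reduction of bacterial viability or growth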
# Beta Lactamase [7] = molecular target: T3, Beta Lactamase; assay: BLA reporter interference, concentration series – BLA reporter cells, FRET fluorescence, artefact control for TLR9-MyD88 binding inhibitor project, dose response (AID 588341); format: cell-based;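 also: cell based assay in CHO-K1 cells stably expressing beta-lactamase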
# [8] = molecular target: Kappa-type opioid receptor (Homo sapiens, UniProt P41145); assay: kappa opioid receptor antagonism potency – cell-based, fluorescence, dose response, late-stage follow-up (AID 652032); format: functional
# [9] = molecular target: T4, Beta-2 adrenergic receptor (Homo sapiens, UniProt P07550); assay: ADRB2 activation measured by internalization – cell-based, FAP fluorogen, flow cytometry, cherry pick 1, dose response (AID 588763); format: functional
# [10] = molecular target: T4, Beta-2 adrenergic receptor; assay: Dose response for HTS for Beta-2AR agonists via FAP method from Powderset1.; format: functional
# [11] = molecular target: ATP-dependent translocase ABCB1 (Homo sapiens, UniProt P08183); assay: inhibition of P-gp mediated JC-1 efflux – Jurkat-DNR cells, flow cytometry, dose response (AID 1689); format: functional
# [12] = molecular target: Broad substrate specificity ATP-binding cassette transporter ABCG2 (Homo sapiens, UniProt Q9UNQ0); assay: blockers of JC-1 export by ABCG2 – Ig-MXP3 cells, flow cytometry, dose response (AID 1690); format: functional
# Broad substrate specificity ATP-binding cassette transporter ABCG2, sequence (Q9UNQ0 whole entry): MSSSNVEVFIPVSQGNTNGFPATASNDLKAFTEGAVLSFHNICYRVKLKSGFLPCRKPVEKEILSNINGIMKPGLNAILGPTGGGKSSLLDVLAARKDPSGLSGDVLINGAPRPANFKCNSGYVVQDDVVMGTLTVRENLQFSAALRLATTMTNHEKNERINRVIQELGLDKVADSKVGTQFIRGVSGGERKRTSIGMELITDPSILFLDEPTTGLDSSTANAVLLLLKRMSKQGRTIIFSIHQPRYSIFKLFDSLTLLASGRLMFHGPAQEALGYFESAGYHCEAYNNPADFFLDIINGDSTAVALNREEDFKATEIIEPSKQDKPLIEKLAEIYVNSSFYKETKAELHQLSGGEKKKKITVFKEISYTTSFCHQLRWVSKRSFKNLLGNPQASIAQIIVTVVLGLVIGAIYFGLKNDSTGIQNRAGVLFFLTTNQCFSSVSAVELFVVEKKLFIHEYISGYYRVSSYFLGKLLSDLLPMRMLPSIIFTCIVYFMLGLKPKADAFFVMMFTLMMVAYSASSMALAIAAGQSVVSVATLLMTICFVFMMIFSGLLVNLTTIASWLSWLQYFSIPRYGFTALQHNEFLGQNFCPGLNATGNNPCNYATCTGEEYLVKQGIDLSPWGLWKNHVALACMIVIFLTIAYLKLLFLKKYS
# T4 sequence (P07550 whole entry): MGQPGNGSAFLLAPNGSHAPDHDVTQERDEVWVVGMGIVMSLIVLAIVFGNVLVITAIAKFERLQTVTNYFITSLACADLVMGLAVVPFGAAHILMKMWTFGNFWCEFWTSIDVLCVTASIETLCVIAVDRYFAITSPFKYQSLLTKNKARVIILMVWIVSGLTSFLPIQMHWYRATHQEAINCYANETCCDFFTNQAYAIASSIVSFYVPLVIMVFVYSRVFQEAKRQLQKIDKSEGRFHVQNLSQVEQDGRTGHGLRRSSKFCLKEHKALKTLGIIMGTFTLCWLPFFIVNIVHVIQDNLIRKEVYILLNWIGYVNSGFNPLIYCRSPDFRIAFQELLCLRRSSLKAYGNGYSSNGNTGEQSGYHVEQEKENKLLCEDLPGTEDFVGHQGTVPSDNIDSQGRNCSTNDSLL
# T3 sequence (Q932Y6 whole entry): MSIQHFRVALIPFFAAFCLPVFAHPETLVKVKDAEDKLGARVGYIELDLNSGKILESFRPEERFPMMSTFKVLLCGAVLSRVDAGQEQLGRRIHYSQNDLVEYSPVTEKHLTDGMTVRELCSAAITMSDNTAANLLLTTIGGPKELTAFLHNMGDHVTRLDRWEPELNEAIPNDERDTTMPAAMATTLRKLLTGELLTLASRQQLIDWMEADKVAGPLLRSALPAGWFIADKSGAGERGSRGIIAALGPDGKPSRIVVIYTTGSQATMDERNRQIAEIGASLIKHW
# Kappa-type opioid receptor, sequence (P41145 whole entry): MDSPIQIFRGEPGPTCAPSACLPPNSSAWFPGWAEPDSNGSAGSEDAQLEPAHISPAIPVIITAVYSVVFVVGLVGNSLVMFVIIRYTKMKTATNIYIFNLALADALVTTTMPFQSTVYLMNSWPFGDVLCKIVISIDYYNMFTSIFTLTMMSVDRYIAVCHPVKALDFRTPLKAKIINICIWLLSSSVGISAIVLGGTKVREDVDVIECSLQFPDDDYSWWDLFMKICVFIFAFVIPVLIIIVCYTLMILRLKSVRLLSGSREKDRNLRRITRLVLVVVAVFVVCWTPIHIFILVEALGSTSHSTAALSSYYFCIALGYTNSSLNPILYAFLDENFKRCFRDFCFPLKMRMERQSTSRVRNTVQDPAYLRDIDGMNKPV
# UDP-galactopyranose mutase, sequence (P9WIQ1 whole entry): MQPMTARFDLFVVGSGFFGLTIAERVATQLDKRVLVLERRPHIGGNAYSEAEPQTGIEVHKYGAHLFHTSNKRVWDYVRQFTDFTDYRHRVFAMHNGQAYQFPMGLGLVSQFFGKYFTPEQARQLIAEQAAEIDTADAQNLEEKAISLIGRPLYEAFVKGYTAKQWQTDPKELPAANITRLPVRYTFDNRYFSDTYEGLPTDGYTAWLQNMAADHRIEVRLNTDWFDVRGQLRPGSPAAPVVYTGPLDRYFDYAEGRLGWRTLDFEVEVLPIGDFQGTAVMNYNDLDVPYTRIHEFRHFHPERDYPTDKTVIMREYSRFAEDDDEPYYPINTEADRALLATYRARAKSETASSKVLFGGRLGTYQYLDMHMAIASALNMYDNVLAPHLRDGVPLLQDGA
# Voltage-dependent T-type calcium channel subunit alpha-1H, sequence (O95180 whole entry): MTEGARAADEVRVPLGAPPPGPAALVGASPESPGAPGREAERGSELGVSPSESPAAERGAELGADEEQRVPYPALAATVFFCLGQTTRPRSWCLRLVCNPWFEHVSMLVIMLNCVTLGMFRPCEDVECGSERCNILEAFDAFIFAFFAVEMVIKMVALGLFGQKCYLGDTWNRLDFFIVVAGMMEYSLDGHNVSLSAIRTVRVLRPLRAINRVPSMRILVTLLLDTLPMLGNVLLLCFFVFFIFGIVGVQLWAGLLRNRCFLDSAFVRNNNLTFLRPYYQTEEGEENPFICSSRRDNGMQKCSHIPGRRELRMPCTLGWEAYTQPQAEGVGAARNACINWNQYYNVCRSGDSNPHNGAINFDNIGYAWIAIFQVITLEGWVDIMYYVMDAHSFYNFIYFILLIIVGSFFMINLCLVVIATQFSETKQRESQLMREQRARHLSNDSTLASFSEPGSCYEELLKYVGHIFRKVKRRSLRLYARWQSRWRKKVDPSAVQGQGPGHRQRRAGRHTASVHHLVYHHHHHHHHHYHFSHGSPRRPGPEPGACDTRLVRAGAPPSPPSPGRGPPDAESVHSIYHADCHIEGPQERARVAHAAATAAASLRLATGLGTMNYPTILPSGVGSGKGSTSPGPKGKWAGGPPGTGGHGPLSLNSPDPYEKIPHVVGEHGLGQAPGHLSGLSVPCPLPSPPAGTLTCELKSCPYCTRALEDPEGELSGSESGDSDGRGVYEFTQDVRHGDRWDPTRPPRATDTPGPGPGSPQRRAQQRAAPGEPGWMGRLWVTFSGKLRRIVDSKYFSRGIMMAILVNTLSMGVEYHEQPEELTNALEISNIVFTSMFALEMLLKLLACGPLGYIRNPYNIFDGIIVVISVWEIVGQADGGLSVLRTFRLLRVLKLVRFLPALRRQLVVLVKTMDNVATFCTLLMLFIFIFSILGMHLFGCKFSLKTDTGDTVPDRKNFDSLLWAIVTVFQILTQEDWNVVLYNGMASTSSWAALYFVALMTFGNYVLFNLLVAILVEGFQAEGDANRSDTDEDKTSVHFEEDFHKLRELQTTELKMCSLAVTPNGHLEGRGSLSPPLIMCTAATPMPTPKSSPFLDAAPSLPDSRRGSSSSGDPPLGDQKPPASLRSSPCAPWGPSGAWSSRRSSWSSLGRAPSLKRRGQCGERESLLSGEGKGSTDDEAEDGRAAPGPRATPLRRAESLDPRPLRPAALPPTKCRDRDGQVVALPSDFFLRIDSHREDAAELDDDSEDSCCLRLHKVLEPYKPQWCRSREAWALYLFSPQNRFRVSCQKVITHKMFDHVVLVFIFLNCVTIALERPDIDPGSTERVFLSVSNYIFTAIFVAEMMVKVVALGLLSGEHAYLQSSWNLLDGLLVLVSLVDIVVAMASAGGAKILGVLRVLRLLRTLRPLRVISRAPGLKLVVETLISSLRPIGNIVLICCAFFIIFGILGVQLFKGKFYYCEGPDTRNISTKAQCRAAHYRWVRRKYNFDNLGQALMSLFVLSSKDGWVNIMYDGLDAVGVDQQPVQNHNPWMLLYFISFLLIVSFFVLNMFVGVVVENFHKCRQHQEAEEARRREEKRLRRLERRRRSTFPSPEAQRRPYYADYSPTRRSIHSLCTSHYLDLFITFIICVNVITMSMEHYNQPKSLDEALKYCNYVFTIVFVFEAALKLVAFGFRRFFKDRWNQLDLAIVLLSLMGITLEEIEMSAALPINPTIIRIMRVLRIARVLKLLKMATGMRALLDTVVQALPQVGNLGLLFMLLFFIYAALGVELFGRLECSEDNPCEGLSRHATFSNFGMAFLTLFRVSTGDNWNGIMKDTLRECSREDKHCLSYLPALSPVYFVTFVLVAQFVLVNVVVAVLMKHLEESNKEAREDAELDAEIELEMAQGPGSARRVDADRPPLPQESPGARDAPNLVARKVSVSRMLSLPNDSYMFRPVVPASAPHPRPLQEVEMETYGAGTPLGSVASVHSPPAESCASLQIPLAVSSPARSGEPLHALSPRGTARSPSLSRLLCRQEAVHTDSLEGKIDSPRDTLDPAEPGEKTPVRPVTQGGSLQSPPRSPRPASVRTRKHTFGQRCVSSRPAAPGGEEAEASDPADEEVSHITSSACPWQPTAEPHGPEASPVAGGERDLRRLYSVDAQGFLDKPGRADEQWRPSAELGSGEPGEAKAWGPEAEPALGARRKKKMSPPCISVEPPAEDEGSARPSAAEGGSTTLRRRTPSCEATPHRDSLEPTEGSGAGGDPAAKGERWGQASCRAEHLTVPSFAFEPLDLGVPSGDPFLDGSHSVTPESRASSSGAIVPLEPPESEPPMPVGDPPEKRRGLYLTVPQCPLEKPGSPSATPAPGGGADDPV
# Beta-lactamase (Salmonella choleraesuis (strain SC-B67), UniProt Q5J463), sequence (Q5J463 whole entry): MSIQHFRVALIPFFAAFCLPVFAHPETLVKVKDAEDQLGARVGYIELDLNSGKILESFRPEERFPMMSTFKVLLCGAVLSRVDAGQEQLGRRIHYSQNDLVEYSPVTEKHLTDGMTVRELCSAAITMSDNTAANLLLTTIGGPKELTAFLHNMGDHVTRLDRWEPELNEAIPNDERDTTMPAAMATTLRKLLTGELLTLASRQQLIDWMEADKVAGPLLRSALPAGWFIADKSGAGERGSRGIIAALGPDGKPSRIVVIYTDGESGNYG
# Beta-lactamase (Pseudomonas aeruginosa, UniProt Q79MP6), sequence (Q79MP6 whole entry): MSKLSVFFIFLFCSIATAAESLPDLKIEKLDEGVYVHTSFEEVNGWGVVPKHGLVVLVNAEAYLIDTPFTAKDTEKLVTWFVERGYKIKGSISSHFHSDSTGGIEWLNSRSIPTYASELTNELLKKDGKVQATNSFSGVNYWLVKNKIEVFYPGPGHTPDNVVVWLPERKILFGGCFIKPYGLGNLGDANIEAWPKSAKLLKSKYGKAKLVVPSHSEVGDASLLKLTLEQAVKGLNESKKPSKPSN
compound,measurement,setting,value
CN1C(=O)/C(=N\CCc2ccccc2)c2c3ccccc3c(O)c3cccc1c23,IC50,CHO,> 49.8 µM (inactive)
same,IC50,Beta-lactamase [1],2.19 µM (active)
same,EC50,Streptokinase A,> 150 µM (not active)
same,AC50,ORF 73,0.902 µM (active)
same,EC50,[2],11.3 µM (active)
same,IC50,Beta-lactamase [3],11.5 µM (inactive)
same,IC50,Beta Lactamase [4],9.24 µM (active)
same,AC50,[5],0.73 µM (active)
same,EC50,[6],1.6 µM (active)
same,EC50,Streptococcus,> 150 µM (not active)
same,IC50,Beta Lactamase [7],5.98 µM (active)
COC(=O)c1cc(Br)cnc1N1CCC(NC2CCCCC2)C(C)C1 (stereo unspecified),IC50,[8],0.075 µM (active)
CCc1ccc(CN2CCC(Oc3ccc(C(=O)N4CCCCC4)cc3)CC2)cc1,EC50,[9],1.75 µM (active)
same,EC50,[10],1.83 µM (active)
CCOc1ccc(NC(=O)c2cccc3c2C(=O)N(CCOC)C3)cc1,EC50,[11],8.31 µM (inactive)
same,EC50,[12],1.6 µM (active)
